Read-outs that look alike come from different tables or passages of the source.
Tests used:
[1] = tested on: Magnaporthe grisea (Pyricularia oryzae—PYRIOR); test: microbe, parasite or virus in culture; assay type: cell-based; conditions: Pyricularia oryzae, read-out: PYRIOR in vitro Growth Inhibition
[2] = tested on: Rhizoctonia solani (RHIZSO); test: microbe, parasite or virus in culture; assay type: cell-based; conditions: Rhizoctonia solani, read-out: RHIZSO in vitro Growth Inhibition
[3] = tested on: Mycosphaerella graminicola (Septoria tritici—SEPTTR); test: In vitro fungal growth inhibition, Mycosphaerella graminicola (SEPTTR); assay type: cell-based; conditions: Zymoseptoria tritici, read-out: SEPTTR in vitro Growth Inhibition
[4] = tested on: Stagonospora nodorum (Leptosphaeria nodorum—LEPTNO); test: In vitro fungal growth inhibition, Stagonospora nodorum (LEPTNO); assay type: cell-based; conditions: Leptosphaeria, read-out: LEPTNO in vitro Growth Inhibition
Ustilago maydis (USTIMA) = test: microbe, parasite or virus in culture; assay type: cell-based; conditions: Mycosarcoma maydis, read-out: USTIMA in vitro Growth Inhibition
[5] = tested on: Phytophthora infestans (PHYTIN); test: microbe, parasite or virus in culture; assay type: cell-based; conditions: Phytophthora infestans, read-out: PHYTIN in vitro Growth Inhibition
[6] = tested on: Phytophthora infestans—PHYTIN; test: whole plant or invertebrate; assay type: in vivo; conditions: for pest or weed control at 100 ppm: Phytophthora, in Solanum lycopersicum, 24 h, read-out: PHYTIN in vivo 1 Day Protectant
[7] = tested on: Puccinia recondita—PUCCRT; test: Brown Rust of Wheat, in vivo whole plant, 24 Hour Protectant; conditions: for pest or weed control at 100 ppm: Puccinia, read-out: PUCCRT in vivo 1 Day Protectant
Erysiphe graminis—ERYSGT = test: Powdery Mildew of Wheat, in vivo whole plant, 24 Hour Protectant; conditions: Erysiphe, read-out: ERYSGT in vivo 1 Day Protectant
Septoria tritici—SEPTTR = test: Leaf Blotch of Wheat, in vivo whole plant, 24 Hour Protectant; conditions: for pest or weed control at 100 ppm: Zymoseptoria tritici, 24 h, read-out: SEPTTR in vivo 1 Day Protectant
[8] = tested on: Leptosphaeria nodorum—LEPTNO; test: Glume Blotch of Wheat, in vivo whole plant, 24 Hour Protectant; conditions: for pest or weed control at 100 ppm: Leptosphaeria, read-out: LEPTNO in vivo 1 Day Protectant
[9] = wheat plants sprayed at 100 ppm, inoculated after 24 hours, control of fungal infection vs untreated plants
[10] = 100 ppm spray, wheat, 24 hour protectant, control of fungal infection vs untreated plants
[11] = 100 ppm spray, wheat, 24 hour protectant, % control of fungal infection vs untreated plants
[12] = 100 ppm spray, 24 hour protectant, wheat, control of fungal infection vs untreated plants

SMILES	inhibition at 25 ppm [1]	inhibition at 25 ppm [2]	inhibition at 25 ppm ([3]; 25 ppm in the growth medium)	inhibition at 25 ppm ([4]; 25 ppm in the growth medium)	inhibition at 25 ppm (Ustilago maydis (USTIMA))	inhibition at 25 ppm [5]	pest or weed control at 100 ppm [6]	pest or weed control at 100 ppm [7, 9]	pest or weed control at 100 ppm (Erysiphe graminis—ERYSGT; [9])	pest or weed control at 100 ppm (Septoria tritici—SEPTTR; [9])	pest or weed control at 100 ppm [8, 9]	melting point	inhibition at 25 ppm ([3]; 25 ppm in growth medium)	inhibition at 25 ppm ([4]; 25 ppm in growth medium)	pest or weed control at 100 ppm [7, 12]	pest or weed control at 100 ppm (Erysiphe graminis—ERYSGT; [12])	pest or weed control at 100 ppm (Septoria tritici—SEPTTR; [12])	pest or weed control at 100 ppm [8, 12]	other results
CC1(C)CC(NC(=O)c2cc(O)cnc2O)CC(C)(C)C1 [Compound 526]	< 80%	< 80%	< 80%	< 80%	< 80%	< 80%	< 25%	< 25%	< 25%	25 to 74%	25 to 74%	320 to 327 °C	–	–	–	–	–	–	–
COc1ccnc(C(=O)Nc2cccc(Sc3ccc(C(F)(F)F)cc3)c2)c1O [Compound 444]	< 80%	< 80%	–	–	< 80%	< 80%	< 25%	–	–	–	–	133 to 134 °C	< 80%	< 80%	–	–	–	–	pest or weed control at 100 ppm [7, 10]: 25 to 74%; pest or weed control at 100 ppm (Erysiphe graminis—ERYSGT; [10]): < 25%; pest or weed control at 100 ppm (Septoria tritici—SEPTTR; [10]): 25 to 74%; pest or weed control at 100 ppm [8, 10]: 25 to 74%
COc1ccnc(C(=O)N[C@H]2COC(=O)[C@H](Cc3ccccc3)[C@@H](OC(=O)C(C)C)[C@H](C)OC2=O)c1OC(=O)C1CC1 [Compound 601]	< 80%	< 80%	–	–	< 80%	< 80%	< 25%	–	–	–	–	195 to 196 °C	< 80%	< 80%	–	–	–	–	PUCCRT in vivo 1 Day Protectant [7, 11]: + +; pest or weed control at 100 ppm (Erysiphe graminis—ERYSGT; [11]): < 25%; SEPTTR in vivo 1 Day Protectant (Septoria tritici—SEPTTR; [11]): + +; LEPTNO in vivo 1 Day Protectant [8, 11]: + +
COc1ccnc(C(=O)NC2CC(C)(C)CC(C)(C)C2)c1O [Compound 250]	< 80%	< 80%	–	–	< 80%	> 80%	25 to 74%	–	–	–	–	104 to 106 °C	< 80%	> 80%	25 to 74%	< 25%	< 25%	25 to 74%	–
O=C(NCc1cccc2ccccc12)c1ncccc1O [Compound 228]	< 80%	< 80%	–	–	< 80%	< 80%	25 to 74%	–	–	–	–	106 to 109 °C	< 80%	< 80%	< 25%	< 25%	< 25%	< 25%	–
CC(C)(C)C1CCC(NC(=O)c2cnccc2O)CC1 (stereo not drawn) [Compound 504]	< 80%	< 80%	< 80%	> 80%	< 80%	< 80%	< 25%	< 25%	< 25%	< 25%	25 to 74%	70 to 78 °C	–	–	–	–	–	–	–
O=C(Oc1cccnc1C(=O)NC1CCC(OC(=O)c2ccccc2)CC1)c1ccccc1 (stereo not drawn) [Compound 567]	< 80%	< 80%	< 80%	< 80%	< 80%	< 80%	–	< 25%	< 25%	25 to 74%	25 to 74%	174 to 177 °C	–	–	–	–	–	–	PHYTIN in vivo 1 Day Protectant ([6]; tomato plants sprayed at 100 ppm, inoculated after 24 hours, control of fungal infection vs untreated plants): + +
COCCC(=O)Oc1c(OC)ccnc1C(=O)Nc1ccc(C(=O)c2cccc(C(F)(F)F)c2)cc1 [Compound 706]	< 80%	< 80%	–	–	< 80%	< 80%	< 25%	–	–	–	–	158 to 160 °C	< 80%	> 80%	–	–	–	–	pest or weed control at 100 ppm [7, 11]: < 25%; pest or weed control at 100 ppm (Erysiphe graminis—ERYSGT; [11]): < 25%; pest or weed control at 100 ppm (Septoria tritici—SEPTTR; [11]): 25 to 74%; pest or weed control at 100 ppm [8, 11]: 25 to 74%
O=C(OC1CCC(NC(=O)c2ncccc2O)CC1)c1ccccc1 (stereo not drawn) [Compound 211]	< 80%	< 80%	–	–	< 80%	< 80%	< 25%	–	–	–	–	154 to 157 °C	< 80%	< 80%	< 25%	< 25%	25 to 74%	25 to 74%	–
COc1ccnc(C(=O)N[C@@H]2CC(C)(C)C[C@](C)(C(=O)N(C)CCc3ccccc3)C2)c1O [Compound 262]	< 80%	< 80%	–	–	< 80%	< 80%	< 25%	–	–	–	–	59 to 60 °C	< 80%	< 80%	< 25%	< 25%	25 to 74%	25 to 74%	–
COc1ccnc(C(=O)Nc2ccc(Oc3ccc(C(F)(F)F)cc3)cn2)c1O [Compound 470]	> 80%	> 80%	> 80%	> 80%	< 80%	< 80%	< 25%	25 to 74%	25 to 74%	25 to 74%	25 to 74%	173 to 175 °C	–	–	–	–	–	–	–
O=C(NCc1ccc(Cl)c(Cl)c1)c1ncccc1O [Compound 221]	> 80%	< 80%	–	–	< 80%	> 80%	< 25%	–	–	–	–	100 to 101 °C	> 80%	< 80%	< 25%	< 25%	< 25%	< 25%	–
COc1ccnc(C(=O)N[C@H]2CC(=O)OCC(NC(=O)OC(C)(C)C)COC2=O)c1O (stereo partly drawn) [Compound 379]	< 80%	< 80%	–	–	< 80%	< 80%	< 25%	–	–	–	–	118 to 121 °C	< 80%	< 80%	–	–	–	–	pest or weed control at 100 ppm [7, 10]: 25 to 74%; pest or weed control at 100 ppm (Erysiphe graminis—ERYSGT; [10]): 25 to 74%; pest or weed control at 100 ppm (Septoria tritici—SEPTTR; [10]): 25 to 74%; pest or weed control at 100 ppm [8, 10]: 25 to 74%

Reference: patent US6706740B2, “Fungicidal heterocyclic aromatic amides and their compositions, methods of use and preparation” (Dow AgroSciences LLC, priority 1999, dated 2004)
